Test results published in patent publication US9718821B2, “Pyridopyrimidinone inhibitors of kinases” (AbbVie Inc., priority 2012, dated 2017).

Target: T1, GST-tagged-Wee1 kinase (Homo sapiens, UniProt P30291)
T1 construct: purchased Carnabio 05-177
Assay: Wee1 time-resolved fluorescence equilibrium binding assay (displacement of Oregon Green-labeled ATP-competitive kinase probe)
Conditions: enzyme binding data; GST-tagged-Wee1 kinase 2 nM, fluorescent probe 300 nM, inhibitor 0.003 to 10 micromolar, 1 hour incubation; read-out: Wee-1 binding (Ki nM)
Experimental: Wee1 kinase was assayed using a time-resolved fluorescence equilibrium binding assay monitoring displacement of a rapidly reversible Oregon Green-labeled ATP-competitive kinase probe (N-(2-(2-(2-(4-(4-(5-chloro-4-(2-(1-hydroxycyclobutyl)thiazol-5-yl)-1H-pyrrolo[2,3-b]pyridin-2-yl)phenyl)piperazin-1-yl)ethoxy)ethoxy)ethyl)-2′,7′-difluoro-3′,6′-dihydroxy-3-oxo-3H-spiro[isobenzofuran-1,9′-xanthene]-5-carboxamide) by competitive Wee1 inhibitors.
Table 1 depicts enzyme binding data (Ki)for exemplary compounds.

T1 sequence (P30291 whole entry): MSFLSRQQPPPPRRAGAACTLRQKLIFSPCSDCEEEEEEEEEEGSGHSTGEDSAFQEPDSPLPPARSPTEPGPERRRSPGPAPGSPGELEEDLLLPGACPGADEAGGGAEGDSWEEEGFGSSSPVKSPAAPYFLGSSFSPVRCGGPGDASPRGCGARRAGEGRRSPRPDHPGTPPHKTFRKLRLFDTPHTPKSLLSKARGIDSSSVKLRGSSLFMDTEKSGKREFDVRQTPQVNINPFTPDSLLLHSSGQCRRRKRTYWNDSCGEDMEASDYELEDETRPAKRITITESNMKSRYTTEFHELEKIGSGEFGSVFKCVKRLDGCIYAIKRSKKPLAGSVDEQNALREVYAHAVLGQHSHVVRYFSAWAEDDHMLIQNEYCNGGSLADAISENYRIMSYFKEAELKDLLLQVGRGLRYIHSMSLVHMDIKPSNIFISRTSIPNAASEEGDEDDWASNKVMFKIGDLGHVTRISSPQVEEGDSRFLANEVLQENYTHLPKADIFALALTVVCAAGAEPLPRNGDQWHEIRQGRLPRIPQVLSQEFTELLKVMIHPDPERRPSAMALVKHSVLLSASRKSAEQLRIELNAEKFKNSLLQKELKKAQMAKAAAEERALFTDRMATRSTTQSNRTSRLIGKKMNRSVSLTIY

`C=Cc1cn(-c2c(F)cccc2Cl)c(=O)c2cnc(Nc3ccc4c(c3)CN(C)CC43CC3)nc12` [Example 63, 6-(2-chloro-6-fluorophenyl)-8-ethenyl-2-[(2′-methyl-2′,3′-dihydro-1′H-spiro[cyclopropane-1,4′-isoquinolin]-7′-yl)amino]pyrido[4,3-d]pyrimidin-5(6H)-one] and `Cc1cn(-c2c(F)cccc2Cl)c(=O)c2cnc(Nc3ccc4c(c3)CN(C)CC43CC3)nc12` [Example 67, 6-(2-chloro-6-fluorophenyl)-8-methyl-2-[(2′-methyl-2′,3′-dihydro-1′H-spiro[cyclopropane-1,4′-isoquinolin]-7′-yl)amino]pyrido[4,3-d]pyrimidin-5(6H)-one] are within 1.5-fold of each other in Ki: 0.9 nM for the first, 0.8 nM for the second.

First: Cc1cn(-c2cccc3cccnc23)c(=O)c2cnc(Nc3ccc4c(c3)CN(C)CC43CC3)nc12 [Example 97, 8-methyl-2-[(2′-methyl-2′,3′-dihydro-1′H-spiro[cyclopropane-1,4′-isoquinolin]-7′-yl)amino]-6-(quinolin-8-yl)pyrido[4,3-d]pyrimidin-5(6H)-one]
Second: Cc1cccc(Cl)c1-n1cc(C)c2nc(Nc3ccc4c(c3)CN(C)CC43CC3)ncc2c1=O [Example 90, 6-(2-chloro-6-methylphenyl)-8-methyl-2-[(2′-methyl-2′,3′-dihydro-1′H-spiro[cyclopropane-1,4′-isoquinolin]-7′-yl)amino]pyrido[4,3-d]pyrimidin-5(6H)-one]
The Ki of the first is 150-fold higher: 28.2 nM for the first, 0.193 nM for the second.

First: Cc1cn(-c2cc(Cl)ccc2Cl)c(=O)c2cnc(Nc3ccc4c(c3)CNCC4)nc12 [Example 102, 6-(2,5-dichlorophenyl)-8-methyl-2-(1,2,3,4-tetrahydroisoquinolin-7-ylamino)pyrido[4,3-d]pyrimidin-5(6H)-one]
Second: COC(=O)c1ccc(Cl)c(-n2cc(C)c3nc(Nc4ccc5c(c4)CNCC5)ncc3c2=O)c1 [Example 107, methyl 4-chloro-3-[8-methyl-5-oxo-2-(1,2,3,4-tetrahydroisoquinolin-7-ylamino)pyrido[4,3-d]pyrimidin-6(5H)-yl]benzoate]
The Ki of the first is 18-fold lower: 17.8 nM for the first, 321 nM for the second.

Compared with `Cc1cn(-c2c(F)cccc2Cl)c(=O)c2cnc(Nc3ccc4c(c3)CNCC4)nc12` [Example 75, 6-(2-chloro-6-fluorophenyl)-8-methyl-2-(1,2,3,4-tetrahydroisoquinolin-7-ylamino)pyrido[4,3-d]pyrimidin-5(6H)-one], `Cc1cn(-c2c(Cl)cccc2Cl)c(=O)c2cnc(Nc3ccc4c(c3)CNCC4)nc12` [Example 80, 6-(2,6-dichlorophenyl)-8-methyl-2-(1,2,3,4-tetrahydroisoquinolin-7-ylamino)pyrido[4,3-d]pyrimidin-5(6H)-one] is 1.6-fold lower in Ki: 0.8 nM for the first, 0.5 nM for the second.

Going from `Cc1cn(-c2ccccc2O)c(=O)c2cnc(Nc3ccc4c(c3)CNCC4)nc12` [Example 117, 6-(2-hydroxyphenyl)-8-methyl-2-(1,2,3,4-tetrahydroisoquinolin-7-ylamino)pyrido[4,3-d]pyrimidin-5(6H)-one] to `Cc1cccc(O)c1-n1cc(C)c2nc(Nc3ccc4c(c3)CNCC4)ncc2c1=O` [Example 118, 6-(2-hydroxy-6-methylphenyl)-8-methyl-2-(1,2,3,4-tetrahydroisoquinolin-7-ylamino)pyrido[4,3-d]pyrimidin-5(6H)-one], the Ki falls from 2 nM to 0.6 nM (3.3-fold). The second binds more tightly here.

`O=c1c2cnc(Nc3ccc4c(c3)CCNC4)nc2c(C(F)F)cn1-c1c(Cl)cccc1Cl` [Example 93, 6-(2,6-dichlorophenyl)-8-(difluoromethyl)-2-(1,2,3,4-tetrahydroisoquinolin-6-ylamino)pyrido[4,3-d]pyrimidin-5(6H)-one] and `CC1(C)CNCc2cc(Nc3ncc4c(=O)n(-c5c(Cl)cccc5Cl)cc(C(F)F)c4n3)ccc21` [Example 85, 6-(2,6-dichlorophenyl)-8-(difluoromethyl)-2-[(4,4-dimethyl-1,2,3,4-tetrahydroisoquinolin-7-yl)amino]pyrido[4,3-d]pyrimidin-5(6H)-one] are within 1.5-fold of each other in Ki: 0.358 nM for the first, 0.265 nM for the second.

Going from `Cc1cn(-c2cccc3ccccc23)c(=O)c2cnc(Nc3ccc4c(c3)CNCC4)nc12` [Example 100, 8-methyl-6-(naphthalen-1-yl)-2-(1,2,3,4-tetrahydroisoquinolin-7-ylamino)pyrido[4,3-d]pyrimidin-5(6H)-one] to `Cc1cccc(C)c1-n1cc(C)c2nc(Nc3ccc4c(c3)CNCC4)ncc2c1=O` [Example 126, 6-(2,6-dimethylphenyl)-8-methyl-2-(1,2,3,4-tetrahydroisoquinolin-7-ylamino)pyrido[4,3-d]pyrimidin-5(6H)-one], the Ki falls from 4.3 nM to 0.4 nM (11-fold).

`Cc1cn(-c2c(Cl)cccc2Cl)c(=O)c2cnc(Nc3ccc(NC4CCN(C)C4)cc3)nc12` (stereo not drawn) [Example 125, 6-(2,6-dichlorophenyl)-8-methyl-2-({4[(1-methylpyrrolidin-3-yl)amino]phenyl}amino)pyrido[4,3-d]pyrimidin-5(6H)-one] and `CNC(=O)CS(=O)(=O)c1ccc(Nc2ncc3c(=O)n(-c4c(Cl)cccc4Cl)cc(C)c3n2)cc1` [Example 120, 2-[(4-{[6-(2,6-dichlorophenyl)-8-methyl-5-oxo-5,6-dihydropyrido[4,3-d]pyrimidin-2-yl]amino}phenyl)sulfonyl]-N-methylacetamide] are the same in Ki: 0.3 nM for the first, 0.3 nM for the second.

First: CN(C)CCCN1CCN(c2ccc(Nc3ncc4c(=O)n(-c5c(Cl)cccc5Cl)cc(CF)c4n3)cc2)CC1 [Example 140, 6-(2,6-dichlorophenyl)-2-[(4-{4-[3-(dimethylamino)propyl]piperazin-1-yl}phenyl)amino]-8-(fluoromethyl)pyrido[4,3-d]pyrimidin-5(6H)-one]
Second: CN(C)C1CCN(c2ccc(Nc3ncc4c(=O)n(-c5c(Cl)cccc5Cl)cc(CO)c4n3)cc2)CC1 [Example 55, 6-(2,6-dichlorophenyl)-2-({4-[4-(dimethylamino)piperidin-1-yl]phenyl}amino)-8-(hydroxymethyl)pyrido[4,3-d]pyrimidin-5(6H)-one]
The Ki of the first is 3-fold lower: 0.2 nM for the first, 0.6 nM for the second.

Going from `Cc1cn(-c2c(F)cccc2Cl)c(=O)c2cnc(Nc3ccc4c(c3)CN(C)CC4(C)C)nc12` [Example 70, 6-(2-chloro-6-fluorophenyl)-8-methyl-2-[(2,4,4-trimethyl-1,2,3,4-tetrahydroisoquinolin-7-yl)amino]pyrido[4,3-d]pyrimidin-5(6H)-one] to `Cc1cn(-c2c(F)cccc2Cl)c(=O)c2cnc(Nc3ccc4c(c3)CC(N(C)C)C4)nc12` (stereo not drawn) [Example 68, 6-(2-chloro-6-fluorophenyl)-2-{[2-(dimethylamino)-2,3-dihydro-1H-inden-5-yl]amino}-8-methylpyrido[4,3-d]pyrimidin-5(6H)-one], the Ki falls from 1.6 nM to 0.9 nM (1.8-fold). The second binds more tightly here.

`Cc1noc(C)c1-n1cc(C)c2nc(Nc3ccc4c(c3)CNCC4)ncc2c1=O` [Example 124, 6-(3,5-dimethyl-1,2-oxazol-4-yl)-8-methyl-2-(1,2,3,4-tetrahydroisoquinolin-7-ylamino)pyrido[4,3-d]pyrimidin-5(6H)-one] and `Cc1nn(C)c(C)c1-n1cc(C)c2nc(Nc3ccc4c(c3)CNCC4)ncc2c1=O` [Example 119, 8-methyl-2-(1,2,3,4-tetrahydroisoquinolin-7-ylamino)-6-(1,3,5-trimethyl-1H-pyrazol-4-yl)pyrido[4,3-d]pyrimidin-5(6H)-one] are the same in Ki: 1.6 nM for the first, 1.6 nM for the second.

First: Cc1cn(-c2ccccc2Cl)c(=O)c2cnc(Nc3ccc(N4CCC(N(C)C)CC4)cc3)nc12 [Example 99, 6-(2-chlorophenyl)-2-({4-[4-(dimethylamino)piperidin-1-yl]phenyl}amino)-8-methylpyrido[4,3-d]pyrimidin-5(6H)-one]
Second: COC(=O)c1ccc(Cl)c(-n2cc(C)c3nc(Nc4ccc(N5CCC(N(C)C)CC5)cc4)ncc3c2=O)c1 [Example 108, methyl 4-chloro-3-[2-({4-[4-(dimethylamino)piperidin-1-yl]phenyl}amino)-8-methyl-5-oxopyrido[4,3-d]pyrimidin-6(5H)-yl]benzoate]
The Ki of the first is 270-fold lower: 0.9 nM for the first, 242 nM for the second. The first binds more tightly here.

Compared with `O=c1c2cnc(Nc3ccc4c(c3)CNCC43CC3)nc2c(CO)cn1-c1c(Cl)cccc1Cl` [Example 57, 6-(2,6-dichlorophenyl)-2-(2′,3′-dihydro-1′H-spiro[cyclopropane-1,4′-isoquinolin]-7′-ylamino)-8-(hydroxymethyl)pyrido[4,3-d]pyrimidin-5(6H)-one], `O=c1c2cnc(Nc3ccc4c(c3)CNCC4)nc2c(CF)cn1-c1c(Cl)cccc1Cl` [Example 109, 6-(2,6-dichlorophenyl)-8-(fluoromethyl)-2-(1,2,3,4-tetrahydroisoquinolin-7-ylamino)pyrido[4,3-d]pyrimidin-5(6H)-one] is 3-fold higher in Ki: 0.1 nM for the first, 0.3 nM for the second. The first binds more tightly here.

Compared with `Cc1cccc(C)c1-n1cc(C)c2nc(Nc3ccc(N4CCC(N(C)C)CC4)cc3)ncc2c1=O` [Example 89, 2-({4-[4-(dimethylamino)piperidin-1-yl]phenyl}amino)-6-(2,6-dimethylphenyl)-8-methylpyrido[4,3-d]pyrimidin-5(6H)-one], `Cc1cccc(Cl)c1-n1cc(C)c2nc(Nc3ccc4c(c3)CNCC4)ncc2c1=O` [Example 127, 6-(2-chloro-6-methylphenyl)-8-methyl-2-(1,2,3,4-tetrahydroisoquinolin-7-ylamino)pyrido[4,3-d]pyrimidin-5(6H)-one] is 3-fold lower in Ki: 0.897 nM for the first, 0.3 nM for the second. The second binds more tightly here.

Going from `C=Cc1cn(-c2c(F)cccc2Cl)c(=O)c2cnc(Nc3ccc4c(c3)CC(N(C)C)C4)nc12` (stereo not drawn) [Example 64, 6-(2-chloro-6-fluorophenyl)-2-{[2-(dimethylamino)-2,3-dihydro-1H-inden-5-yl]amino}-8-ethenylpyrido[4,3-d]pyrimidin-5(6H)-one] to `COC(=O)c1cc(Nc2ncc3c(=O)n(-c4c(Cl)cccc4Cl)cc(C)c3n2)ccc1N1CCN(C)CC1` [Example 129, methyl 5-{[6-(2,6-dichlorophenyl)-8-methyl-5-oxo-5,6-dihydropyrido[4,3-d]pyrimidin-2-yl]amino}-2-(4-methylpiperazin-1-yl)benzoate], the Ki falls from 0.5 nM to 0.2 nM (2.5-fold).
